# Laboratory results reported in patent EP0002058A1, “3-(2-Aminoethylthio-6-ethyl-7-oxo-1-azabicylo-(3.2.0)-hept-2-en-2-carboxylic acid, process for preparing it and compositions comprising it” (SANRAKU-OCEAN CO., LTD., priority 1977, dated 1979).
# Where a name gives a salt, the structure may show the parent alone.
# Assays:
# [1] = test system: Klebsiella pneumoniae K-2; test: Minimum inhibitory concentration, broth dilution method (brain heart infusion medium); assay type: cell-based; details: K2, inoculum about 1 x 10^5/ml, 35°C, 20 hours
# Protocol: (§1) The minimum inhibitory concentration was determined on various pathogenic microorganisms including a resistant strain to the N-desacetyl derivative by the broth dilution method with a brain heart infusion medium "Eiken" (Eiken Kagaku Co.). Sample solutions to be tested were prepared in a serial dilution with the medium, which were inoculated with the test microorganisms at the final cell count of about 1 x 10^5/ml and incubated at 35 °C. After 20 hours the microbial growth was examined. The minimum inhibitory concentration was determined as the lowest concentration of the sample at which no growth of the corresponding test microorganism was observed.
# [2] = test system: Staphylococcus aureus FDA 209P; test: as above; assay type: cell-based; details: for MIC: Staphylococcus aureus, FDA209P, inoculum about 1 x 10^5/ml, 35°C, 20 hours
# Protocol: as §1
# [3] = test system: Staphylococcus aureus Russel; test: as above; assay type: cell-based; details: inoculum about 1 x 10^5/ml, 35°C, 20 hours
# Protocol: as §1
# [4] = test system: Staphylococcus aureus Smith; test: Activity in vivo in mice inoculated intraperitoneally with Staphylococcus aureus Smith; design: species or system male ddy mice; details: sc, 5 x 10^5 cells/mouse intraperitoneally, injected subcutaneously immediately after the inoculation, read-out: CD50 value
# Protocol: The N-desacetyl derivative was prepared on a large scale in a similar manner to the above-described and the activity in vivo was determined in mice inoculated with 5 x 10^5 cells/mouse of Staphylococcus aureus Smith intraperitoneally. The derivative was injected subcutaneously immediately after the inoculation.
# [5] = design: species or system male ddy mice; details: mouse, in vivo, ip, 500 mg/kg
# [6] = Solubility; assay type: physicochemical
# [7] = test system: staphylococcal bacteria; test: Antimicrobial spectrum (general statement); assay type: cell-based
# [8] = test system: pathogenic Gram-positive bacteria; test: Activity in vivo (general statement); details: mice infected with pathogenic Gram-positive bacteria
# [9] = test system: Comanonas terrigena B-996; test: Bioassay of antibacterial potency (disc on agar assay plate, CCU); assay type: cell-based; details: purified solid preparation
# Text: • (1) Cells of Comanonas terrigena B-996, cultivated on a nutrient agar overnight, are suspended in a nutrient broth to give a seed culture having an absorbance at […], ascribable to the cells, of 0.04. A melted agar medium consisting of 0.8% Kyokuto powdered bouillon (Kyokuto Seiyaku Kogyo) and 1% Bacto agar (Difco Labs.) is inoculated with 1% of the seed culture. Seven ml portions of the agar medium are poured into petri dishes with a diameter of 9 cm and solidified to prepare a Comamonas assay plate. • (2) Staphylococcus aureus FDA209P is cultivated overnight with shaking in a nutrient broth. The culture is diluted to 50 times with a nutrient broth to obtain a seed culture. A melted agar medium consisting of 1% Kyokuto powdered bouillon (Kyokuto Seiyaku Kogyo) and 1% Bacto agar (Difco Labs.) is inoculated with 1% of the seed culture. Seven ml portions of the agar medium are poured into petri dishes with a diameter of 9 cm and solidified to prepare a Staphylococcus assay plate. • (3) A pulp disc with a diameter of 8 mm is soaked in a sample solution and put on the assay plate mentioned above after removing an excess of the sample solution soaked by placing on filter paper. […] The diameter of the inhibitory zone is measured. TIle concentration of the test compound in the sample solution is calculated by comparing the diameter with that of the standard solution.
SMILES,MIC [1] [µg/mL],MIC [2] [µg/mL],MIC [3] [µg/mL],antibacterial potency [9],further results
"CO[C@@]1(NC(=O)Cc2cccs2)C(=O)N2C(C(=O)O)=C(COC(N)=O)CS[C@@H]21 [Cefoxitin, reference compound]",12.5,1.56,3.13,,
CCC1C(=O)N2C(C(=O)O)=C(SCCN)CC12 (stereo not drawn) [N-desacetyl derivative],5,0.008,0.063,,"inhibitory activity relative to that of the antibiotic PS-5 ([2]; Staphylococcus aureus FDA 209p, times higher than antibiotic PS-5): about 10 times; ED50 [4]: 0.55 mg/kg; acute toxicity [5]: No acute toxicity; Solubility in acetone, ethyl acetate and benzene ([6]; acetone, ethyl acetate and benzene): practically insoluble; Solubility in water ([6]; water): easily soluble; antimicrobial activity [7]: high antimicrobial activity; therapeutic effect [8]: remarkable therapeutic effect"
"CC[C@H]1C(=O)N2C(C(=O)O)=C(SCCNC(C)=O)C[C@H]12 (relative stereo) [PS-5 sodium salt, reference compound]",,,,"21,000 CCU/mg",
CC[C@H]1C(=O)N2C(C(=O)OC(c3ccccc3)(c3ccccc3)c3ccccc3)=C(SCCNC(C)=O)C[C@H]12 (relative stereo) [trityl ester of antibiotic PS-5],,,,"10,800 CCU/mg",
